Here are results for 12 molecules from patent publication US11713327B2, “Heteroaryl heterocyclyl compounds for the treatment of autoimmune disease” (Hoffmann-La Roche Inc., priority 2018, dated 2023).

Data set [1] in a line: Human microsome stability assay. The format is in vitro ADME. The following applies: 1 μM test compound, 0.5 mg/mL liver microsomal protein. The protocol: Human Microsome Stability Assay
The human microsomal stability assay is used for early assessment of metabolic stability of a test compound in human liver microsomes.
Human liver microsomes (Cat. NO.: 452117, Corning, USA; Cat. NO.: H2610, Xenotech, USA) were preincubated with test compound for 10 minutes at 37° C. in 100 mM potassium phosphate buffer, pH 7.4. The reactions were initiated by adding NADPH regenerating system. The final incubation mixtures contained 1 μM test compound, 0.5 mg/mL liver microsomal protein, 1 mM MgCl2, 1 mM NADP, 1 unit/mL isocitric dehydrogenase and 6 mM isocitric acid in 100 mM potassium phosphate buffer, pH 7.4. After incubation times of 0, 3, 6, 9, 15 and 30 minutes at 37° C., 300 μL of cold acetonitrile (including internal standard) was added to 100 μL incubation mixture to terminate the reaction. Following precipitation and centrifugation, the amount of compound remaining in the samples were determined by LC-MS/MS. Controls of no NADPH regenerating system at zero and 30 minutes were also prepared and analyzed.
On the technique in general: Microsomes from liver hold many membrane-bound enzymes, among them those of drug oxidation.

In data set [2] the target is hERG K+ channels (Homo sapiens (Human), UniProt Q12809). Put plainly: hERG channel inhibition assay (patch-clamp, CHOhERG cells). In kind it is cell-based. The conditions noted are these: for hERG IC20/TLR9 IC50 / hERG IC20/TLR7 IC50: safety ratio; for safety window (hERG IC20/TLR7/8/9 IC50): compared to the compounds of this invention. The protocol: hERG Channel Inhibition Assay:
The hERG K^+ channels were cloned in humans and stably expressed in a CHO (Chinese hamster ovary) cell line. CHOhERG cells were used for patch-clamp (voltage-clamp, whole-cell) experiments. Cells were stimulated by a voltage pattern to activate hERG channels and conduct IKhERG currents (rapid delayed outward rectifier potassium current of the hERG channel). After the cells were stabilized for a few minutes, the amplitude and kinetics of IKhERG were recorded at a stimulation frequency of 0.1 Hz (6 bpm). Thereafter, the test compound was added to the preparation at increasing concentrations. For each concentration, an attempt was made to reach a steady-state effect, usually, this was achieved within 3-10 min at which time the next highest concentration was applied. The amplitude and kinetics of IKhERG are recorded in each concentration of the drug which were compared to the control values (taken as 100%). (references: Redfern W S, Carlsson L, Davis A S, Lynch W G, MacKenzie I, Palethorpe S, Siegl P K, Strang I, Sullivan A T, Wallis R, Camm A J, Hammond T G. 2003; Relationships between preclinical cardiac electrophysiology, clinical QT interval prolongation and torsade de pointes for a broad range of drugs: evidence for a provisional safety margin in drug development. Cardiovasc. Res. 58:32-45, Sanguinetti M C, Tristani-Firouzi M. 2006; hERG potassium channels and cardiac arrhythmia. Nature 440:463-469, Webster R, Leishman D, Walker D. 2002; Towards a drug concentration effect relationship for QT prolongation and torsades de pointes. Curr. Opin. Drug Discov. Devel. 5:116-26).
Background: The hERG channel carries a current that helps repolarise heart muscle cells.

Sequence of hERG K+ channels (Q12809 whole entry): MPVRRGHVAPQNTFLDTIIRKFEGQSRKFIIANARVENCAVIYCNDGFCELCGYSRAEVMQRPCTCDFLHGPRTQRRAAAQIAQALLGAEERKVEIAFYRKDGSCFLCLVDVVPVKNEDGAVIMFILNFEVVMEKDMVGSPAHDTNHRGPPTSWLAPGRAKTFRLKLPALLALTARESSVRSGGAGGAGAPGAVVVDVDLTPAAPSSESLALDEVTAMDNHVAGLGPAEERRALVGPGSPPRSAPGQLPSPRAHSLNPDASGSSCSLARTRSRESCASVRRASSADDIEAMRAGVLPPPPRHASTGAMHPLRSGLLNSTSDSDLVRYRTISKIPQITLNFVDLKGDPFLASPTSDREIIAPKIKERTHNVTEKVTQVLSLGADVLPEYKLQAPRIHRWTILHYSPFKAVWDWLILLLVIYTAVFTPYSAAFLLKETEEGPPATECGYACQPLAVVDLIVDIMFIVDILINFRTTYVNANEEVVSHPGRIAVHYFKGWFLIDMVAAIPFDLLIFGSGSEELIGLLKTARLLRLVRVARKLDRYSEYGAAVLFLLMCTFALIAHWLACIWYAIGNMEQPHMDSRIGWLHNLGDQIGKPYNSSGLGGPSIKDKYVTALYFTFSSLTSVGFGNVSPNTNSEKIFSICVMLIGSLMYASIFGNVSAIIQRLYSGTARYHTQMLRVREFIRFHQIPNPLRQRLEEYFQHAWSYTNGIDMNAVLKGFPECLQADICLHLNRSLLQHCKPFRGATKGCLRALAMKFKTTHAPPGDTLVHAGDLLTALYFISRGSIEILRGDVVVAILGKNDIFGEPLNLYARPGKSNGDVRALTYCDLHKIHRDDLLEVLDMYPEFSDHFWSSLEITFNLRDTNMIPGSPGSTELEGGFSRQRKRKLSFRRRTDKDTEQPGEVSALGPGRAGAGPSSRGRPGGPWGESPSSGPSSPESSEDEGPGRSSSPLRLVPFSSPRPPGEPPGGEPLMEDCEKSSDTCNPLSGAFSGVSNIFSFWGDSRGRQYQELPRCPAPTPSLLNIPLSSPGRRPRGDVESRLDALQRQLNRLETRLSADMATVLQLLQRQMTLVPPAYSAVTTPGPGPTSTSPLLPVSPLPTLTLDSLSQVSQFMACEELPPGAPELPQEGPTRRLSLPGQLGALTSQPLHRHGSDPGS

For `C[C@@H]1CN(c2ccc(C#N)c3ncccc23)C[C@H](CN2CCN(c3ccc4c(n3)CN[C@H]4C)CC2)O1` [Example 63, 5-[(2R,6S)-2-methyl-6-[[4-[(5S)-5-methyl-6,7-dihydro-5H-pyrrolo[3,4-b]pyridin-2-yl]piperazin-1-yl]methyl]morpholin-4-yl]quinoline-8-carbonitrile], in data set [1], the “Clearance of Human microsome” value is listed as 6.15 mL/min/kg.

As for `C[C@@H]1CN(c2ccc(C#N)c3ncccc23)C[C@H](CN2CC3(C2)CN(c2cnc4c(n2)CCNC4)CCO3)O1` [Example 50, 5-[(2R,6S)-2-methyl-6-[[8-(5,6,7,8-tetrahydropyrido[3,4-b]pyrazin-2-yl)-5-oxa-2,8-diazaspiro[3.5]nonan-2-yl]methyl]morpholin-4-yl]quinoline-8-carbonitrile], the “hERG IC20/TLR9 IC50” value in data set [2] was more than 144.9. Take `C[C@@H]1CN(c2ccc(C#N)c3ncccc23)C[C@H](CN2CCN(c3ccccc3)CC2)O1` [ER-887258]: in data set [2], the “safety window (hERG IC20/TLR7/8/9 IC50)” value was “much narrower safety window”, the “hERG IC20/TLR7 IC50” value came out at 8.1 and the “hERG IC20/TLR9 IC50” value is given as 0.3. `COc1ccc(N2CCN(C[C@H]3CN(c4ccc(C#N)c5ncccc45)C[C@@H](C)O3)CC2)cc1` [Example R1, 5-[(2S,6R)-2-[[4-(4-methoxyphenyl)piperazin-1-yl]methyl]-6-methyl-morpholin-4-yl]quinoline-8-carbonitrile]: in data set [2], the “safety window (hERG IC20/TLR7/8/9 IC50)” value is “much narrower safety window”, the “hERG IC20/TLR7 IC50” value was determined as 9.3 and the “hERG IC20/TLR9 IC50” value was 0.1. Regarding `C[C@@H]1CN(c2ccc(C#N)c3ncccc23)C[C@H](CN2CCN(c3ccc(Cl)cc3)CC2)O1` [Example R2, 5-[(2S,6R)-2-[[4-(4-chlorophenyl)piperazin-1-yl]methyl]-6-methyl-morpholin-4-yl]quinoline-8-carbonitrile], in data set [2], the “safety window (hERG IC20/TLR7/8/9 IC50)” value is listed as “much narrower safety window”, the “hERG IC20/TLR7 IC50” value is given as 1.3 and the “hERG IC20/TLR9 IC50” value came to 0.04. As for `C[C@@H]1CN(c2ccc(C#N)c3ncccc23)C[C@H](CN2CCN(c3ccccn3)CC2)O1` [ER-888285], in data set [2], the “safety window (hERG IC20/TLR7/8/9 IC50)” value is “much narrower safety window”, the “hERG IC20/TLR7 IC50” value is reported as 8.4 and the “hERG IC20/TLR9 IC50” value amounted to 0.5. Turning to `[2H]c1nc2c(C#N)ccc(N3C[C@H](CN4CCN(c5ccc6c(n5)CN[C@@H]6C)CC4)O[C@H](C)C3)c2nc1[2H]` [Example 97, 2,3-dideuterio-8-[(2R,6S)-2-methyl-6-[[4-[(5R)-5-methyl-6,7-dihydro-5H-pyrrolo[3,4-b]pyridin-2-yl]piperazin-1-yl]methyl]morpholin-4-yl]quinoxaline-5-carbonitrile], the “Clearance of Human microsome” value in data set [1] is recorded as 6.15 mL/min/kg. As for `[2H]c1nc2c(C#N)ccc(N3C[C@H](CN4CCN(c5ccc6c(n5)CN[C@H]6C)CC4)O[C@H](C)C3)c2nc1[2H]` [Example 96, 2,3-dideuterio-8-[(2R,6S)-2-methyl-6-[[4-[(5S)-5-methyl-6,7-dihydro-5H-pyrrolo[3,4-b]pyridin-2-yl]piperazin-1-yl]methyl]morpholin-4-yl]quinoxaline-5-carbonitrile], the “Clearance of Human microsome” value in data set [1] was found to be 6.23 mL/min/kg. `[2H]c1ccc2c(N3C[C@H](CN4CCN(c5ccc6c(n5)CN[C@H]6C)CC4)O[C@H](C)C3)ccc(C#N)c2n1` [Example 99, 2-deuterio-5-[(2R,6S)-2-methyl-6-[[4-[(5S)-5-methyl-6,7-dihydro-5H-pyrrolo[3,4-b]pyridin-2-yl]piperazin-1-yl]methyl]morpholin-4-yl]quinoline-8-carbonitrile]: in data set [1], the “Clearance of Human microsome” value was determined as 6.32 mL/min/kg.

For `C[C@@H]1CN(c2ccc(C#N)c3ncccc23)C[C@H](CN2CCN(c3ccncc3)CC2)O1` [ER-888286], in data set [2], the “safety window (hERG IC20/TLR7/8/9 IC50)” value was “much narrower safety window”, the “hERG IC20/TLR7 IC50” value was 0.3 and the “hERG IC20/TLR9 IC50” value is 0.2.

Take `[2H]c1nc2c(C#N)ccc(N3C[C@H](CN4CCN(c5cc6c(cn5)[C@@H](C)NCC6)CC4)O[C@H](C)C3)c2nc1[2H]` [Example 95, 2,3-dideuterio-8-[(2R,6S)-2-methyl-6-[[4-[(8R)-8-methyl-5,6,7,8-tetrahydro-2,7-naphthyridin-3-yl]piperazin-1-yl]methyl]morpholin-4-yl]quinoxaline-5-carbonitrile]: in data set [1], the “Clearance of Human microsome” value was 7.13 mL/min/kg. As to `[2H]c1ccc2c(N3C[C@H](CN4CCN(c5ccc6c(n5)CN[C@@H]6C)CC4)O[C@H](C)C3)ccc(C#N)c2n1` [Example 98, 2-deuterio-5-[(2R,6S)-2-methyl-6-[[4-[(5R)-5-methyl-6,7-dihydro-5H-pyrrolo[3,4-b]pyridin-2-yl]piperazin-1-yl]methyl]morpholin-4-yl]quinoline-8-carbonitrile], the “Clearance of Human microsome” value in data set [1] was 8.02 mL/min/kg.
